In PMC12668308, “A Novel Antimalarial Agent that Inhibits Protein Synthesis in Plasmodium falciparum” (Angewandte Chemie (International Ed. in English), 2025):
Where two headings read alike, the source gives them in different places.

Tests used:
[1] = test system: P. falciparum NF54 strain; test: [3H]-hypoxanthine incorporation assay, asexual blood stage; type: cell-based, Plasmodium falciparum
Outline: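 Parasites in human RBC were exposed to a 6-step twofold compound dilution in hypoxanthine-free medium (final parasitemia 0.3%, haematocrit 1.25%) at 37 °C under 3% O2/4% CO2. After 48 h, [3H]-hypoxanthine (0.25 µCi/well) was added for 24 h and uptake measured by scintillation counting. IC50 came from four-parameter curve fitting.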

[2] = test system: Uncharacterized protein (W7JXH4); test: iSPP profiling, P. falciparum lysate; type: binding, Plasmodium falciparum
Method: P. falciparum NF54 lysates were extracted as described in ^[26^] . The parasite asynchronous culture was extracted once 3-5% parasitemia was reached. Saponin lysis was done as described in 2.2.10. Once the parasite pellet was obtained, 2.5 volumes of ice-cold lysis buffer (50 mM Tris/HCl pH 7.5 (Avantor), 5% glycerol (Sigma-Aldrich), 150 mM NaCl (Carl Roth), 1.5 mM MgCl2 (Sigma-Aldrich), 1 mM DTT (Carl Roth), 0.8% IGEPAL CA-630 (Sigma-Aldrich), 1X Halt Protease and Phosphatase Inhibitor-Cocktails EDTA-free (Thermo Fisher Scientific)) was added to the parasite pellet. The lysate solution was subjected to three cycles of flash freeze-thaw with liquid nitrogen and ddH2O at RT. The lysates were centrifuged at 20,000 g for 20 minutes at 4 °C. The soluble protein fraction (supernatant) was collected and the protein content was quantified using the BCA assay (Pierce™ BCA Protein Assay Kit, Thermo Fisher Scientific). The lysate was stored at -80 °C until further use.
The P. falciparum lysate was thawed on ice and diluted to 0.8 mg/mL. […] Subsequently, the samples were incubated at room temperature for 30 minutes using a rotating mixer. After distribution into a 96-well plate, the samples were treated with increasing concentrations of A.E.A. (v/v) ranging from 14% to 28% (14, 16, 18, 20, 22, 24, 26, and 28%). Following a 20-minute incubation at 37°C with shaking at 750 rpm, the samples were centrifuged at 4400 g for 35 minutes to remove precipitated proteins. The soluble fractions were then pooled in equal volumes into a single sample using the Bravo Automated Liquid Handling Platform. The pooled samples were subsequently prepared for LC-MS/MS analysis.
The raw LFQ-DIA intensity values of biological replicates across all conditions were normalized to the median abundance using Excel. The normalized values were then log2 transformed in Perseus (v2.0.10.0).^[58^] Missing values were imputed from a normal distribution (width 0.3, down shift 1.5), and p-values were obtained using a two-sample t-test over replicates with a permutation-based false discovery rate correction (FDR 0.05). Volcano plots were generated in RStudio using the EnhancedVolcano package (v. 1.20.0), ^[59^] plotting proteins by statistical significance (y-axis: –Log10 p-value) versus the magnitude of change (x-axis: log2 fold change of protein intensities for each compound condition relative to the vehicle control). The heatmap was generated in Perseus (v2.0.10.0). Dose-dependent curves were generated using normalized protein intensity values, expressed as a ratio to the vehicle control. Plots were created in GraphPad Prism (v8.3.0) using a nonlinear regression model.

[3] = test system: cytosolic ribosomal subunits; test: iSPP assay, P. falciparum lysate; type: binding, Plasmodium falciparum; conditions: lysate incubated with 100 µM; 104 stabilized proteins in total for 31
From the text: To further elucidate the MoA of 31, an integral solvent‐induced protein precipitation (iSPP) assay was employed as recently described.^[ [26] ^] iSPP utilizes a solvent mixture (acetone/ethanol/acetic acid) to induce protein denaturation, allowing the detection of drug‐protein interactions by quantitative mass spectrometry based on changes in protein stability due to compound binding using cellular lysates from in vitro blood‐stage P. falciparum parasites.
P. falciparum NF54 lysates were extracted as described in ^[26^] . The parasite asynchronous culture was extracted once 3-5% parasitemia was reached. Saponin lysis was done as described in 2.2.10. […] The soluble protein fraction (supernatant) was collected and the protein content was quantified using the BCA assay (Pierce™ BCA Protein Assay Kit, Thermo Fisher Scientific). […]
The raw LFQ-DIA intensity values of biological replicates across all conditions were normalized to the median abundance using Excel. […] Dose-dependent curves were generated using normalized protein intensity values, expressed as a ratio to the vehicle control. […]

[4] = Plasmodium falciparum, NF54, asexual blood stage, mean ± s.d., read-out: PfNF54 IC50 ± s.d.

## O=C(Nc1cc(CN2CCOCC2)ccc1F)c1cccc(Oc2cc(C(F)(F)F)ccn2)c1 [Compound 34, N-(2-Fluoro-5-(morpholinomethyl)phenyl)-3-((4-(trifluoromethyl)pyridin-2-yl)oxy)benzamide]
[1]; PfNF54 IC50
  fold lower activity (control compound vs 31): 1000 fold
[1]; [4]
  IC50: 3730 nM
[2]; 100 µM compound 34
  log2FC: 0.3904
[3]
  significantly stabilized proteins belonging to cytosolic ribosomal subunits: failed to stabilize any cytosolic ribosomal proteins

## CN1CCN(Cc2ccc(O)c(NC(=O)c3cccc(Oc4cc(C(F)(F)F)ccn4)c3)c2)CC1 [Compound 31, N-(2-hydroxy-5-((4-methylpiperazin-1-yl)methyl)phenyl)-3-((4-(trifluoromethyl)pyridin-2-yl)oxy)benzamide]
[1]; NF54
  IC50 ratio relative to NF54 strain: 1.00
[1]; Plasmodium falciparum, NF54, 72 h, Table S2, NF54 sensitive strain, 72-h assay, mean±s.d., read-out: IC50
  IC50: 1.8 ± 0.3 nM
[1]; [4]
  IC50: < 5 nM
[1]; asexual blood stage, mean ± s.d., read-out: PfNF54 IC50 ± s.d.
  IC50: 3.9 nM
[2]; 10 µM
  log2FC: 1.06
[2]; 50 µM
  log2FC: 0.61
[2]; 100 µM compound 31
  log2FC: 0.70
[2]; 10^-2 µM
  log2FC: 0.54
[2]; 10^-3 µM
  log2FC: 0.61
[3]
  significantly stabilized proteins belonging to cytosolic ribosomal subunits: 12
